Measured values: ChEMBL document CHEMBL1134330, “Synthesis, in vitro pharmacology, and molecular modeling of syn-huprines as acetylcholinesterase inhibitors” (J Med Chem, 2001)

Key:
Acetylcholinesterase [1] = target: Acetylcholinesterase (Homo sapiens, UniProt P22303); test: In vitro inhibitory concentration against acetylcholinesterase of human erythrocytes
Cholinesterase = Cholinesterase (Homo sapiens, UniProt P06276)
Description: In vitro inhibitory concentration against BChE of human serum

Acetylcholinesterase [2] = target: T1, Acetylcholinesterase (Bos taurus, UniProt P23795)
T1 sequence (P23795 whole entry): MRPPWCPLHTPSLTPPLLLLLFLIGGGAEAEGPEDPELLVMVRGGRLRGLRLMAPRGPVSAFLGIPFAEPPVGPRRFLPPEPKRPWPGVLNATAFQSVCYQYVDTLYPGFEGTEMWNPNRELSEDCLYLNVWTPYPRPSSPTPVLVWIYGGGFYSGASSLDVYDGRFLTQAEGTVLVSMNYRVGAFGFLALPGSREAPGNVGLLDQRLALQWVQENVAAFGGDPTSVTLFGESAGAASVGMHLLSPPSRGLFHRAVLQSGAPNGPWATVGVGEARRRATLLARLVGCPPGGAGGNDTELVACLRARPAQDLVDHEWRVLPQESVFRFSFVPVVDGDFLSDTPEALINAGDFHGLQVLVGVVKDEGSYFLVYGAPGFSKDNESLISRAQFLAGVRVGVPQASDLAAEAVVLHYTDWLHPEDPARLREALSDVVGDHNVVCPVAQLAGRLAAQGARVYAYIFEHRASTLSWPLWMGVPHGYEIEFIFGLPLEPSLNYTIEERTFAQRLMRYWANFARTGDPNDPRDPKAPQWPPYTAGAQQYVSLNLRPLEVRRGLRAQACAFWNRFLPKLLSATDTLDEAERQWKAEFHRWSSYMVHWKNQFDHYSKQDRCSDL
Description: In vitro inhibitory concentration against bovine acetylcholinesterase enzyme

Acetylcholinesterase (Homo sapiens, UniProt P22303), sequence (P22303 whole entry): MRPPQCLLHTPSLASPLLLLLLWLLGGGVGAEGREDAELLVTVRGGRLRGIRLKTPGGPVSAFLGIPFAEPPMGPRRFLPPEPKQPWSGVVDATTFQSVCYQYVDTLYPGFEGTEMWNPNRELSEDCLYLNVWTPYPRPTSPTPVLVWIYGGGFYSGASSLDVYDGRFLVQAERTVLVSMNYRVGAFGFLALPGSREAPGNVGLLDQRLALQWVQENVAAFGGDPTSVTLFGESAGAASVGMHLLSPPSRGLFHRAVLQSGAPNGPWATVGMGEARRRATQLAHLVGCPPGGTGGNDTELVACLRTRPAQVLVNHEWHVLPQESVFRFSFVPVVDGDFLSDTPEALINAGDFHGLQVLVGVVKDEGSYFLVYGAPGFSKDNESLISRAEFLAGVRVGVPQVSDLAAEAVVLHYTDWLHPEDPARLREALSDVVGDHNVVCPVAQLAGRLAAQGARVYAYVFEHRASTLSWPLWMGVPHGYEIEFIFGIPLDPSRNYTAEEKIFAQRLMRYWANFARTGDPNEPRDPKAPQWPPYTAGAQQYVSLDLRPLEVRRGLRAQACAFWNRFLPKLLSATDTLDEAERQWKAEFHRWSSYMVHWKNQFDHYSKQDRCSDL
Cholinesterase, sequence (P06276 whole entry): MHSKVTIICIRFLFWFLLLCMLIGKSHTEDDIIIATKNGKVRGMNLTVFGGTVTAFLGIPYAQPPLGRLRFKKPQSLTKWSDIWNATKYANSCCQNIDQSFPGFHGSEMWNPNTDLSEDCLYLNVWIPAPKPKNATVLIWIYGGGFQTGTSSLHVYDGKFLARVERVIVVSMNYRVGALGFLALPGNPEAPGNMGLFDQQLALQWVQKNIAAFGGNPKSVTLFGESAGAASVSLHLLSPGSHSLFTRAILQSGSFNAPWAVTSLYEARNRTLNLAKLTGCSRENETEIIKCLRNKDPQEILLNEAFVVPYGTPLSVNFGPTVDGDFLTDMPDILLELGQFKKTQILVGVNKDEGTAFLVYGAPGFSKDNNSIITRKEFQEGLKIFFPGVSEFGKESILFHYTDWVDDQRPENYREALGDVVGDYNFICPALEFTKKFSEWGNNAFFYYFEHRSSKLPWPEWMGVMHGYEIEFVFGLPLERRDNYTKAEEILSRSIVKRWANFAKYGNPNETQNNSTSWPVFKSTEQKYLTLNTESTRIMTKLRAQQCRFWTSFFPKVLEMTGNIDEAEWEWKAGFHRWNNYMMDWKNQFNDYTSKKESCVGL

| Compound | IC50 (Acetylcholinesterase [1]) [nM] | IC50 (Cholinesterase) [nM] | IC50 (Acetylcholinesterase [2]) [nM] |
| --- | --- | --- | --- |
| CCC1=CC2Cc3nc4ccccc4c(N)c3C(C1)C2 (racemic) | 37.8 |  |  |
| CC1=CC2CC(C1)Cc1nc3ccccc3c(N)c12 (racemic) | 436 | 148 |  |
| CC1=CC2Cc3nc4ccccc4c(N)c3C(C1)C2 (racemic) | 51.6 |  |  |
| CCC1=CC2CC(C1)Cc1nc3ccccc3c(N)c12 (racemic) | 76.9 | 63 | 165 |
